Data set [1] deals with CQ-resistant P. falciparum FcB1 strain. The data set can be described thus: In vitro growth inhibition of P. falciparum FcB1 ([3H]-hypoxanthine incorporation). The format is cell-based, Plasmodium falciparum. The settings on record: for IC50: Plasmodium falciparum; for Selectivity Index (IC50 AB943/IC50 FcB1): ratio of cytotoxicity IC50 to antiplasmodial IC50 (FcB1). The method, then:
(§1) The chloroquine-resistant FcB1/Colombia and Dd2/Indochina strains of Plasmodium falciparum were obtained from the Protist Collection of the National Museum of Natural History, Paris, France (n° MNHN-CEU-2016-224-PfFCB1 and MNHN-CEU-2016-222-PfDD2). The parasites were maintained in vitro on human erythrocytes in RPMI 1640 medium supplemented by 8% (v/v) heat-inactivated human serum, at 37 °C, under an atmosphere of 5% CO2. The human red blood cells and serum were provided by the Établissement Français du Sang under the C-CPSL-UNT approval no. 13/EFS/126. The in vitro drug susceptibility assays were measured by [^3H]-hypoxanthine incorporation, as previously described. The drug stock solutions were prepared in DMSO. Briefly, the assays were performed in 96-well plates. The compounds were diluted in the culture medium (100 μL per well). The parasite cultures (100 μL, 2% parasitaemia, and 1% final hematocrit) were then added to each well and incubated for 24 h at 37 °C prior to the addition of 0.5 μCi of [^3H]- hypoxanthine (GE Healthcare, Paris, France, 1 to 5 Ci·mmol/mL) per well. After a further incubation of 24 h, the plates were frozen and thawed. The cell lysates were then collected onto fiberglass filters and counted in a liquid scintillation spectrometer. The growth inhibition for each drug concentration was determined through a comparison of the radioactivity incorporated in the treated culture with that in the control culture maintained on the same plate. The drugs were first evaluated for a range of fixed concentrations of 50, 5, 0.5, 0.05, and 0.005 μg/mL. […] The IC50 value was obtained from the drug concentration–response curve, and the results were expressed in μM or nM as the mean values ± standard deviations determined from several independent experiments. Artesunate (46) was used as an antimalarial drug control.

For data set [2], the system named is human primary fibroblasts AB943. The data set is described as follows: Cytotoxicity upon human primary fibroblasts AB943 (resazurin). The class given is cell-based. The settings on record: Fibroblast, 72 h, mean +/− SD of at least three independent experiments. The method, then:
A cellular cytotoxicity evaluation was performed upon human primary fibroblasts AB943, as previously described. The assays were realized in 96-well plates in DMEM + Glutamax without phenol red medium containing 25 mM HEPES, a pH of 7.3, and 10% of fetal calf serum under a 5% CO2 atmosphere, at 37 °C. After trypsin treatment, the AB943 cells were seeded at 2000 cells per well in 100 μL. After 24 h of incubation, drugs diluted in the culture medium were added (100 μL per well). The drug stock solutions were prepared in dimethyl sulfoxide (DMSO). The final DMSO concentration in the cultures remained below 1%. Control cultures were constituted of cultures treated with DMSO instead of the drug. The cytotoxicity assay was based on the conversion of a redo-sensitive dye (resazurin) to a fluorescent product via viable cells. After 72 h of incubation, the resazurin solution was added in each well at a final concentration of 45 μM. The fluorescence was measured at 530 nm excitation and 590 nm emission wavelengths after 4 h of incubation. The percentage of the inhibition of cell growth was calculated by comparing the fluorescence of cells maintained in the presence of the drug to that in the absence of the drug. The concentration causing 50% growth inhibition (IC50) was obtained from the drug concentration–response curve, and the results were expressed as the mean values ± standard deviations determined from several experiments.
(In general: The colour change of resazurin is a common sign of viable cells or microbes.)

The test system of data set [3] is CQ-resistant Dd2 strain of P. falciparum. The data set is described as follows: In vitro growth inhibition of P. falciparum Dd2 ([3H]-hypoxanthine incorporation). The format is cell-based, Plasmodium falciparum. As to conditions: for IC50: Plasmodium falciparum, CQ-resistant Dd2, mean +/− SD of at least three independent experiments; for Selectivity Index (IC50 AB943/IC50 Dd2): ratio of cytotoxicity IC50 to antiplasmodial IC50 (Dd2). As for the experimental part: as §1

Setting [4] is: FCB1, CQ-resistant FcB1, mean +/− standard deviation of independent experiments (at least four in Tables 1-2, at least three in Tables 3-4).

Each structure is given as a SMILES string. Where “and” joins values, the source holds several entries; their conditions need not be identical. Equal entries are not always repeated.

A word on the melting point: it is the temperature, or range, at which the solid turns liquid. One may read the IC50 as the concentration at which inhibition is half-maximal. `CCCCOC(=O)c1cn(C2CC2)c2cc(N3CCN(C(=O)C[C@H]4O[C@@H]5O[C@@]6(C)CCC7[C@H](C)CCC([C@H]4C)[C@]75OO6)CC3)c(F)cc2c1=O` (stereo partly drawn) [Compound 16, Butyl 1-cyclopropyl-6-fluoro-4-oxo-7-(4-(2-((3R,6R,9R,10R,12R,12aR)-3,6,9-trimethyldecahydro-12H-3,12-epoxy[1,2]dioxepino[4,3-i]isochromen-10-yl)acetyl)piperazin-1-yl)-1,4-dihydroquinoline-3-carboxylate] gave a melting point of 105 to 106 °C. For the same compound, in data set [1] (setting [4]), the IC50 turned out to be 7.5 nM. In data set [1], the “Selectivity Index (IC50 AB943/IC50 FcB1)” value is recorded as 2000. In data set [2], this compound registered a half-maximal inhibitory concentration (IC50) of 14900 nM. For the same compound, in data set [3], the IC50 amounted to 24 nM and the “Selectivity Index (IC50 AB943/IC50 Dd2)” value is on record as 622.

The compound `C[C@@H]1CCC2[C@@H](C)[C@@H](CCC(=O)N3CCN(c4cc5c(cc4F)c(=O)c(C(=O)N4CCN(c6ccnc7cc(Cl)ccc67)CC4)cn5C4CC4)CC3)O[C@@H]3O[C@@]4(C)CCC1[C@@]23OO4` (stereo partly drawn) [Compound 26, 3-(4-(7-chloroquinolin-4-yl)piperazine-1-carbonyl)-1-cyclopropyl-6-fluoro-7-(4-(3-((3R,6R,9R,10R,12R,12aR)-3,6,9-trimethyldecahydro-12H-3,12-epoxy[1,2]dioxepino[4,3-i]isochromen-10-yl)propanoyl)piperazin-1-yl)quinolin-4(1H)-one] yielded a melting point of 115 to 116 °C. For the same compound, the IC50 in data set [1] (setting [4]) came out at 13.7 nM. In data set [1], the “Selectivity Index (IC50 AB943/IC50 FcB1)” value is recorded as 2668. Further, the 50% inhibitory concentration (IC50) in data set [2] was determined as 36500 nM. For the same compound, in data set [3], the half-maximal inhibitory concentration (IC50) amounted to 41.5 nM and the “Selectivity Index (IC50 AB943/IC50 Dd2)” value was 880.

Compound `C[C@@H]1CCC2[C@@H](C)[C@@H](CC(=O)N3CCN(c4cc5c(cc4F)c(=O)c(C(=O)O)cn5C4CC4)CC3)O[C@@H]3O[C@@]4(C)CCC1[C@@]23OO4` (stereo partly drawn) [Compound 12, 1-cyclopropyl-6-fluoro-4-oxo-7-(4-(2-((3R,6R,9R,10R,12R,12aR)-3,6,9-trimethyldecahydro-12H-3,12-epoxy[1,2]dioxepino[4,3-i]isochromen-10-yl)acetyl)piperazin-1-yl)-1,4-dihydroquinoline-3-carboxylic acid] gave a melting point of 123 to 124 °C. Moreover, in data set [1] (setting [4]), the IC50 was found to be 14.8 nM. In addition, in data set [1], the “Selectivity Index (IC50 AB943/IC50 FcB1)” value came to 4453. The IC50 in data set [2] was 66100 nM. Moreover, in data set [3], the IC50 was 32.5 nM and the “Selectivity Index (IC50 AB943/IC50 Dd2)” value was 2034.

In turn, `C[C@@H]1CCC2[C@@H](C)[C@@H](CC(=O)N3CCN(c4cc5c(cc4F)c(=O)c(C(=O)N4CCN(c6ccnc7cc(Cl)ccc67)CC4)cn5C4CC4)CC3)O[C@@H]3O[C@@]4(C)CCC1[C@@]23OO4` (stereo partly drawn) [Compound 25, 3-(4-(7-chloroquinolin-4-yl)piperazine-1-carbonyl)-1-cyclopropyl-6-fluoro-7-(4-(2-((3R,6R,9R,10R,12R,12aR)-3,6,9-trimethyldecahydro-12H-3,12-epoxy[1,2]dioxepino[4,3-i]isochromen-10-yl)acetyl)piperazin-1-yl)quinolin-4(1H)-one] registered a melting point of 160.2 to 161.3 °C. Also, the IC50 in data set [1] (setting [4]) amounted to 7.5 nM. Further, the “Selectivity Index (IC50 AB943/IC50 FcB1)” value in data set [1] is given as 521. Moreover, the half-inhibitory concentration (IC50) in data set [2] came out at 3900 nM. Further, in data set [3], the IC50 was 17.7 nM and the “Selectivity Index (IC50 AB943/IC50 Dd2)” value worked out at 220.

Consider `CCCCOC(=O)c1cn(CC)c2cc(N3CCN(C(=O)CCC(=O)O[C@@H]4O[C@@H]5O[C@@]6(C)CCC7[C@H](C)CCC([C@H]4C)[C@]75OO6)CC3)c(F)cc2c1=O` (stereo partly drawn) [Compound 24, Butyl 1-ethyl-6-fluoro-4-oxo-7-(4-(4-oxo-4-(((3R,6R,9R,10S,12R,12aR)-3,6,9-trimethyldecahydro-12H-3,12-epoxy[1,2]dioxepino[4,3-i]isochromen-10-yl)oxy)butanoyl)piperazin-1-yl)-1,4-dihydroquinoline-3-carboxylate], for which the melting point is 155 to 156 °C. The IC50 in data set [1] (setting [4]) is 1.9 nM. Further, in data set [1] (FCB1, Table 5, single compound (hybrid or AS alone)), the IC50 came out at 1.9 nM. For the same compound, the “Selectivity Index (IC50 AB943/IC50 FcB1)” value in data set [1] was 16,000 and 16,047. The compound further yielded an IC50 in data set [2] of 30300 nM. In data set [3], the half-inhibitory concentration (IC50) came to 9.2 nM and the “Selectivity Index (IC50 AB943/IC50 Dd2)” value was 3311.

Take `C[C@@H]1CCC2[C@@H](C)[C@H](OC(=O)CCC(=O)N3CCN(c4cc5c(cc4F)c(=O)c(C(=O)N4CCN(c6ccnc7cc(Cl)ccc67)CC4)cn5C4CC4)CC3)O[C@@H]3O[C@@]4(C)CCC1[C@@]23OO4` (stereo partly drawn) [Compound 28, (3R,6R,9R,10S,12R,12aR)-3,6,9-trimethyldecahydro-12H-3,12-epoxy[1,2]dioxepino[4,3-i]isochromen-10-yl 4-(4-(3-(4-(7-chloroquinolin-4-yl)piperazine-1-carbonyl)-1-cyclopropyl-6-fluoro-4-oxo-1,4-dihydroquinolin-7-yl)piperazin-1-yl)-4-oxobutanoate]: the melting point fell in the range of 157 to 158.2 °C. Also, the IC50 in data set [1] (setting [4]) came out at 4.9 nM. The “Selectivity Index (IC50 AB943/IC50 FcB1)” value in data set [1] amounted to 4046. In addition, the 50% inhibitory concentration (IC50) in data set [2] amounted to 19600 nM. Besides, in data set [3], the IC50 amounted to 12.4 nM and the “Selectivity Index (IC50 AB943/IC50 Dd2)” value turned out to be 1582.

In turn, `CCOC(=O)c1cn(CC)c2cc(N3CCN(C(=O)C[C@H]4O[C@@H]5O[C@@]6(C)CCC7[C@H](C)CCC([C@H]4C)[C@]75OO6)CC3)c(F)cc2c1=O` (stereo partly drawn) [Compound 18, Ethyl 1-ethyl-6-fluoro-4-oxo-7-(4-(2-((3R,6R,9R,10R,12R,12aR)-3,6,9-trimethyldecahydro-12H-3,12-epoxy[1,2]dioxepino[4,3-i]isochromen-10-yl)acetyl)piperazin-1-yl)-1,4-dihydroquinoline-3-carboxylate] registered a melting point of 135.1 to 136 °C. The IC50 in data set [1] (setting [4]) was found to be 25.5 nM. Also, the “Selectivity Index (IC50 AB943/IC50 FcB1)” value in data set [1] was 2129. For the same compound, the IC50 in data set [2] amounted to 54300 nM. Moreover, in data set [3], the IC50 stood at 58.7 nM and the “Selectivity Index (IC50 AB943/IC50 Dd2)” value was found to be 925.

The compound `CCOC(=O)c1cn(C2CC2)c2cc(N3CCN(C(=O)CCC(=O)O[C@@H]4O[C@@H]5O[C@@]6(C)CCC7[C@H](C)CCC([C@H]4C)[C@]75OO6)CC3)c(F)cc2c1=O` (stereo partly drawn) [Compound 21, Ethyl 1-cyclopropyl-6-fluoro-4-oxo-7-(4-(4-oxo-4-(((3R,6R,9R,10S,12R,12aR)-3,6,9-trimethyldecahydro-12H-3,12-epoxy[1,2]dioxepino[4,3-i]isochromen-10-yl)oxy)butanoyl)piperazin-1-yl)-1,4-dihydroquinoline-3-carboxylate] yielded a melting point of 115.4 to 116.2 °C. Further, in data set [1] (setting [4]), the half-maximal inhibitory concentration (IC50) was determined as 5.4 nM. Moreover, the “Selectivity Index (IC50 AB943/IC50 FcB1)” value in data set [1] is 9826. Also, the IC50 in data set [2] is 52800 nM. In data set [3], the IC50 stood at 16 nM and the “Selectivity Index (IC50 AB943/IC50 Dd2)” value was 3302.

The compound `CCCCOC(=O)c1cn(CC)c2cc(N3CCN(C(=O)C[C@H]4O[C@@H]5O[C@@]6(C)CCC7[C@H](C)CCC([C@H]4C)[C@]75OO6)CC3)c(F)cc2c1=O` (stereo partly drawn) [Compound 19, Butyl 1-ethyl-6-fluoro-4-oxo-7-(4-(2-((3R,6R,9R,10R,12R,12aR)-3,6,9-trimethyldecahydro-12H-3,12-epoxy[1,2]dioxepino[4,3-i]isochromen-10-yl)acetyl)piperazin-1-yl)-1,4-dihydroquinoline-3-carboxylate] showed a melting point of 151 to 152 °C. Also, in data set [1] (setting [4]), the IC50 was found to be 13.9 nM. Also, the “Selectivity Index (IC50 AB943/IC50 FcB1)” value in data set [1] is 1294. This compound also displayed an IC50 in data set [2] of 18000 nM. Also, in data set [3], the IC50 came out at 38.4 nM and the “Selectivity Index (IC50 AB943/IC50 Dd2)” value turned out to be 469.

Source of the values: paper PMC10886162, “Synthesis of Novel Artemisinin, Ciprofloxacin, and Norfloxacin Hybrids with Potent Antiplasmodial Activity” (Antibiotics, 2024).
